Assay results reported in the NIST ThermoML archive (doi:10.1016/j.fluid.2015.05.009).
Numbers after ± are expanded uncertainties.

What was measured:
[1] = refractive index (Na D-line) (dimensionless); conditions: 101.33 kPa, Liquid, Standard Abbe refractometry
[2] = for viscosity / mass density: 101.33 kPa, Liquid; for viscosity: Concentric cylinders viscometry; for mass density: Vibrating tube method; for surface tension liquid-gas: Pendant drop shape

CC(C)C[P+](C)(CC(C)C)CC(C)C.Cc1ccc(S(=O)(=O)[O-])cc1 [triisobutylmethylphosphonium p-toluenesulfonate]
Conditions | mass density, [2] [kg/m3] | refractive index, [1] | surface tension liquid-gas, [2] [mN/m] | viscosity, [2] [mPa·s]
283.15 K | 1082.4 ± 1 | 1.52489 ± 0.00051 | – | 21829 ± 1800
288.15 K | 1079.3 ± 1 | 1.52338 ± 0.00051 | – | 11305 ± 830
293.15 K | 1076.2 ± 1 | 1.5217 ± 0.00051 | – | 6231.9 ± 410
293.2 K | – | – | 38.1 ± 0.5 | –
298.15 K | 1073.2 ± 1 | 1.5203 ± 0.00051 | – | 3612.4 ± 210
298.2 K | – | – | 37.3 ± 0.5 | –
303.15 K | 1070.1 ± 1 | 1.51828 ± 0.00051 | – | 2199.9 ± 110
303.2 K | – | – | 36.6 ± 0.5 | –
308.15 K | 1067 ± 1 | 1.51635 ± 0.00051 | – | 1397.3 ± 64
313.1 K | – | – | 35.5 ± 0.5 | –
313.15 K | 1064 ± 1 | 1.51433 ± 0.00051 | – | 917.9 ± 37
318.15 K | 1060.9 ± 1 | 1.51233 ± 0.00051 | – | 623.7 ± 22
323.1 K | – | – | 35 ± 0.5 | –
323.15 K | 1057.7 ± 1 | 1.51055 ± 0.00051 | – | 436.2 ± 14
328.15 K | 1054.7 ± 1 | 1.50872 ± 0.00051 | – | 313.1 ± 8.4
333.1 K | – | – | 34.3 ± 0.5 | –
333.15 K | 1051.8 ± 1 | 1.50698 ± 0.00051 | – | 230.1 ± 5.3
338.15 K | 1048.8 ± 1 | 1.50537 ± 0.00051 | – | 172.7 ± 3.4
343.15 K | 1045.9 ± 1 | 1.50391 ± 0.00051 | – | 132.1 ± 2.2
348.15 K | 1043.1 ± 1 | 1.50252 ± 0.00051 | – | 102.8 ± 1.5
353.15 K | 1040.2 ± 1 | 1.50124 ± 0.00051 | – | 81.3 ± 1

CCCCCCCC[P+](CCCCCCCC)(CCCCCCCC)CCCCCCCC.[Br-] [tetraoctylphosphonium bromide]
Conditions | mass density, [2] [kg/m3] | refractive index, [1] | surface tension liquid-gas, [2] [mN/m] | viscosity, [2] [mPa·s]
318.1 K | – | – | 27.4 ± 0.4 | –
318.15 K | 945 ± 0.9 | 1.48262 ± 0.00051 | – | 376.5 ± 11
323.1 K | – | – | 27.1 ± 0.4 | –
323.15 K | 942 ± 0.9 | 1.48092 ± 0.00051 | – | 289.9 ± 7.5
328.15 K | 938.9 ± 0.9 | 1.47916 ± 0.00051 | – | 226.4 ± 5.2
333.1 K | – | – | 26.6 ± 0.4 | –
333.15 K | 935.9 ± 0.9 | 1.47699 ± 0.00051 | – | 178.7 ± 3.6
338.15 K | 932.9 ± 0.9 | 1.47523 ± 0.00051 | – | 142.1 ± 2.5
343.1 K | – | – | 26 ± 0.4 | –
343.15 K | 929.8 ± 0.9 | 1.47354 ± 0.00051 | – | 114.4 ± 1.7
348.15 K | 926.8 ± 0.9 | 1.47195 ± 0.00051 | – | 93.4 ± 1.2
353.15 K | 923.7 ± 0.8 | 1.47035 ± 0.00051 | – | 76.8 ± 0.9

CCCC[P+](C)(CCCC)CCCC.COS(=O)(=O)[O-] [tributylmethylphosphonium methyl sulfate]
Conditions | mass density, [2] [kg/m3] | refractive index, [1] | surface tension liquid-gas, [2] [mN/m] | viscosity, [2] [mPa·s]
283.15 K | 1076.5 ± 1 | 1.48038 ± 0.00051 | – | 6214.1 ± 410
288.15 K | 1073.4 ± 1 | 1.47891 ± 0.00051 | – | 3840.1 ± 230
293.15 K | 1070.3 ± 1 | 1.47742 ± 0.00051 | – | 2476.4 ± 130
293.2 K | – | – | 35.5 ± 0.5 | –
298.15 K | 1067.2 ± 1 | 1.47632 ± 0.00051 | – | 1629.2 ± 78
298.2 K | – | – | 34.7 ± 0.5 | –
303.15 K | 1064.1 ± 1 | 1.47427 ± 0.00051 | – | 1109.1 ± 48
303.2 K | – | – | 34.1 ± 0.5 | –
308.15 K | 1061 ± 1 | 1.47232 ± 0.00051 | – | 774.5 ± 30
313.1 K | – | – | 33.5 ± 0.5 | –
313.15 K | 1057.9 ± 1 | 1.47072 ± 0.00051 | – | 555 ± 19
318.15 K | 1054.8 ± 1 | 1.46912 ± 0.00051 | – | 403.6 ± 12
323.1 K | – | – | 32.9 ± 0.5 | –
323.15 K | 1051.8 ± 1 | 1.46758 ± 0.00051 | – | 300 ± 7.9
328.15 K | 1048.9 ± 1 | 1.46603 ± 0.00051 | – | 227 ± 5.2
333.1 K | – | – | 32.2 ± 0.5 | –
333.15 K | 1045.9 ± 1 | 1.46457 ± 0.00051 | – | 174.7 ± 3.5
338.15 K | 1043 ± 1 | 1.46318 ± 0.00051 | – | 136.3 ± 2.3
343.15 K | 1040.1 ± 1 | 1.46185 ± 0.00051 | – | 107.9 ± 1.6
348.15 K | 1037.3 ± 1 | 1.46067 ± 0.00051 | – | 86.4 ± 1.1
353.15 K | 1034.4 ± 1 | 1.45965 ± 0.00051 | – | 70 ± 0.8

CCCC[P+](CC)(CCCC)CCCC.CCOP(=O)([O-])OCC [tributylethylphosphonium diethylphosphate]
Conditions | mass density, [2] [kg/m3] | refractive index, [1] | surface tension liquid-gas, [2] [mN/m] | viscosity, [2] [mPa·s]
283.15 K | 1021.5 ± 0.9 | 1.47176 ± 0.00051 | – | 1018.4 ± 43
288.15 K | 1018 ± 0.9 | 1.46996 ± 0.00051 | – | 669.5 ± 24
293.15 K | 1014.4 ± 0.9 | 1.46809 ± 0.00051 | – | 466.4 ± 15
293.2 K | – | – | 31.4 ± 0.5 | –
298.15 K | 1010.9 ± 0.9 | 1.46618 ± 0.00051 | – | 316.8 ± 8.6
298.2 K | – | – | 30.5 ± 0.4 | –
303.15 K | 1007.5 ± 0.9 | 1.46474 ± 0.00051 | – | 226.7 ± 5.2
303.2 K | – | – | 29.8 ± 0.4 | –
308.15 K | 1004.1 ± 0.9 | 1.46308 ± 0.00051 | – | 166 ± 3.2
313.1 K | – | – | 29.2 ± 0.4 | –
313.15 K | 1000.7 ± 0.9 | 1.4611 ± 0.00051 | – | 124.7 ± 2
318.15 K | 997.6 ± 0.9 | 1.45923 ± 0.00051 | – | 94.6 ± 1.3
323.1 K | – | – | 28.5 ± 0.4 | –
323.15 K | 994.3 ± 0.9 | 1.45738 ± 0.00051 | – | 73.4 ± 0.8
328.15 K | 990.9 ± 0.9 | 1.45563 ± 0.00051 | – | 57.9 ± 0.6
333.1 K | – | – | 27.5 ± 0.4 | –
333.15 K | 987.6 ± 0.9 | 1.45385 ± 0.00051 | – | 46.4 ± 0.5
338.15 K | 984.3 ± 0.9 | 1.45212 ± 0.00051 | – | 37.5 ± 0.4
343.1 K | – | – | 31.4 ± 0.5 | –
343.15 K | 980.9 ± 0.9 | 1.45045 ± 0.00051 | – | 30.8 ± 0.3
348.15 K | 977.6 ± 0.9 | 1.4488 ± 0.00051 | – | 25.6 ± 0.3
353.15 K | 974.3 ± 0.9 | 1.44718 ± 0.00051 | – | 21.6 ± 0.2
